Patent US6673782B2, “Treatment of systemic lupus erythematosis” (Wisconsin Alumni Research Foundation, priority 1999, dated 2004)
Entries after “also recorded” stand apart in the source; their conditions may differ.

Tests used:
[1] = test system: MRL/MPJ-Fas<lpr>mice; experiment: Mortality of MRL/MPJ-Fas mice on 0.02% calcium diet; assay type: in vivo; conditions: 0.02% Ca + 100 ng/mouse/day; between 18 and 20 weeks of age (no control deaths)
Description: (§1) MRL/MPJ-Fasmice were raised on a chow diet. At 5-6 weeks of age 13 mice were switched to a purified diet containing 0.02% calcium and 14 mice were put on a diet containing 0.02% calcium with 100 ng of 1,25(OH)2D3 per/mouse/day. The mice were checked weekly for physical symptoms of lupus. The symptoms were given numerical scores starting at 0.5=small sore on skin; 1=swollen lymph nodes under front legs; 2=swollen lymph nodes under front legs and neck; 3=swollen lymph nodes under front legs, neck, and back legs (severity scores used in figure on the next page).
(§2) FIG. 3A and B and Tables 3 and 4 disclose data points obtained in this study. At 12 weeks of age the 0.02% Ca+100 ng of 1,25(OH)2D3 group began to show SLE symptoms. It was not until 14 weeks of age that the control (0.02% Ca) mice had the same percentage severity as the mice dosed with 1,25(OH)2D3. Between 18 and 20 weeks of age, about 21.4% of the 0.02% Ca+100 ng 1,25(OH)2D3 mice died. However, none of the controls had reached motality. The experiment was ended at 20 weeks of age.

[2] = test system: MRL/MPJ-Fas<lpr>mice; experiment: Mean symptom scores of lupus in MRL/MPJ-Fas mice on 0.02% calcium diet; assay type: in vivo; conditions: for Mean symptom scores on 0.02% Ca: 0.02% Ca diet + 100 ng/mouse/day, score 0.5-3
Description: as §1, §2

[3] = test system: MRL/MPJ mice; experiment: SLE disease severity (physical symptom) scores in MRL mice on 0.87% calcium diet; assay type: in vivo; parameters: key to Mean scores of disease severity: 0.5 = small sores … 3 = swollen nodes front legs, neck and back legs; conditions: for Mean scores of disease severity: 0.87% Ca, score 0.5-3
Description: MRL mice are the model for the human disease lupus. See Brians, et al., J. Exp. Med. 148:1198-1215, 1978 and P. L. Cohen and R. A. Eisenburg, Annu. Rev. Immunol. 9:243-69, 1991.
(§3) When the MRL mice in this study were 4 weeks old, they were started on one of three experimental diets. All mice were fed the experimental diet which contains 0.87% Ca. Control mice are fed the experimental diet with no 1,25(OH)2D3; one group of 7 mice were fed the experimental diet with 50 ng/mouse/day of 1,25(OH)2D3; and another group of 8 mice were fed the experimental diet with 200 ng/mouse/day of 1,25(OH)2D3. The mice were checked weekly for physical symptoms. In control-fed MRL mice, SLE disease symptoms spontaneously develop after 5 weeks. Symptoms were given numbers from 0.5 to 3, with 0.5 being small sores; 1, swollen lymph nodes under front legs; 2, swollen lymph nodes under front legs and on neck; 3, swollen lymph nodes under front legs, neck and back legs (severity scores for table).
(§4) The diet was then replaced with the same diet providing a dose level of 100 ng/mouse/day.
(§5) The first physical symptoms of lupus began to develop in two female control-fed mice at 14 weeks of age. […] At 17 weeks of age the control mice started to die. Their proteinuria levels were elevated above 300 mg/dl. […] FIG. 1 compares the percentage of mice with elevated proteinuria with the age of the mouse. FIG. 2 compares the severity of the SLE with symptoms the age of the mice.

[4] = test system: MRL/MPJ mice; experiment: Proteinuria in MRL mice on 0.87% calcium diet; assay type: in vivo; conditions: for % of Mice with Proteinuria at 100 mg/dL and Greater: 0.87% Ca
Description: as §3
Proteinuria levels were checked weekly started at 16 weeks of age.
as §5

[5] = test system: MRL/I mice; conditions: Lemire et al., Autoimmunity 1992; cited from earlier work
[6] = Serum calcium, hypercalcemia and death in MRL mice on 0.87% calcium diet; assay type: in vivo; conditions: for Serum calcium: 0.87% Ca diet (controls 8 mg %Ca)
Description: as §3, §4, §5
Serum calcium values were measured and found to be at 8 mg %Ca for the controls, and 12 mg %Ca for both the 50 ng and 100 ng treated groups. The 1,25(OH)2D3 treatment diet was removed at 17 weeks of age, and all mice were fed the 0.87% calcium control diet for the remainder of the experiment.

[7] = test system: MRL/MPJ-Fas<lpr>mice; experiment: Proteinuria in MRL/MPJ-Fas mice on 0.02% calcium diet; assay type: in vivo; conditions: 0.02% Ca diet + 100 ng/mouse/day

Structure (SMILES): C=C1/C(=C\C=C2/CCC[C@]3(C)[C@@H]([C@H](C)CCCC(C)(C)O)CC[C@@H]23)C[C@@H](O)C[C@@H]1O [1,25(OH)2D3, 1α,25-dihydroxyvitamin D3]
- Mice died [1]: about 21.4%
- Age at which group began to show SLE symptoms ([2]; 0.02% Ca + 100 ng/mouse/day): 12 weeks of age
- Mean symptom scores on 0.02% Ca ([2]; age 10 weeks): 0
- Mean symptom scores on 0.02% Ca ([2]; age 11 weeks): 0.214 ± 0.410
- Mean symptom scores on 0.02% Ca ([2]; age 12 weeks): 1.642 ± 0.410
- Mean symptom scores on 0.02% Ca ([2]; age 13 weeks): 2.14 ± 0.515
- Mean symptom scores on 0.02% Ca ([2]; age 14 weeks): 2.714 ± 0.45
- Mean symptom scores on 0.02% Ca ([2]; age 15 weeks): 2.785 ± 0.41
- Mean symptom scores on 0.02% Ca ([2]; age 16 weeks): 2.85 ± 0.349
- Mean symptom scores on 0.02% Ca ([2]; age 17 weeks): 2.85 ± 0.349
- Mean symptom scores on 0.02% Ca ([2]; age 18 weeks): 2.80 ± 0.46
- Mean symptom scores on 0.02% Ca ([2]; age 19 weeks): 2.77 ± 0.49
- Mean symptom scores on 0.02% Ca ([2]; age 20 weeks): 2.95 ± 0.33
- Disease progression ([2]; low calcium diet and treatment): disease progression occurring more quickly
- Effect on SLE symptoms ([2]; mice on a 0.02% (low) calcium diet): not effective; also recorded: did not inhibit these symptoms
- Mean scores of disease severity ([3]; 50 ng/mouse/day until 17 weeks, age 18 weeks): 0.21
- Mean scores of disease severity ([3]; 50 ng/mouse/day until 17 weeks, age 19 weeks): 0.12
- Mean scores of disease severity ([3]; 50 ng/mouse/day until 17 weeks, age 20 weeks): 0.33
- Mean scores of disease severity ([3]; 50 ng/mouse/day until 17 weeks, age 21 weeks): 0.11
- Mean scores of disease severity ([3]; 50 ng/mouse/day until 17 weeks, age 22 weeks): 0.11
- Mean scores of disease severity ([3]; 50 ng/mouse/day until 17 weeks, age 23 weeks): 0.11
- Mean scores of disease severity ([3]; 50 ng/mouse/day until 17 weeks, age 24 weeks): 0.11
- Mean scores of disease severity ([3]; 50 ng/mouse/day, age 0-13 weeks): 0.00
- Mean scores of disease severity ([3]; 50 ng/mouse/day, age 14 weeks): 0.00
- Mean scores of disease severity ([3]; 50 ng/mouse/day, age 15 weeks): 0.00
- Mean scores of disease severity ([3]; 50 ng/mouse/day, age 16 weeks): 0.21
- Mean scores of disease severity ([3]; 50 ng/mouse/day, age 17 weeks): 0.21
- Mean scores of disease severity ([3]; 200 ng then 100 ng/mouse/day until 17 weeks, age 18 weeks): 0.07
- Mean scores of disease severity ([3]; 200 ng then 100 ng/mouse/day until 17 weeks, age 19 weeks): 0.08
- Mean scores of disease severity ([3]; 200 ng then 100 ng/mouse/day until 17 weeks, age 20 weeks): 0.00
- Mean scores of disease severity ([3]; 200 ng then 100 ng/mouse/day until 17 weeks, age 21 weeks): 0.00
- Mean scores of disease severity ([3]; 200 ng then 100 ng/mouse/day until 17 weeks, age 22 weeks): 0.00
- Mean scores of disease severity ([3]; 200 ng then 100 ng/mouse/day until 17 weeks, age 23 weeks): 0.00
- Mean scores of disease severity ([3]; 200 ng then 100 ng/mouse/day until 17 weeks, age 24 weeks): 0.00
- Mean scores of disease severity ([3]; 200 ng then 100 ng/mouse/day, age 14 weeks): 0.00
- Mean scores of disease severity ([3]; 200 ng then 100 ng/mouse/day, age 15 weeks): 0.00
- Mean scores of disease severity ([3]; 200 ng then 100 ng/mouse/day, age 16 weeks): 0.00
- Mean scores of disease severity ([3]; 200 ng then 100 ng/mouse/day, age 17 weeks): 0.00
- Mean scores of disease severity ([3]; 200 ng then (from 10 weeks) 100 ng/mouse/day, age 0-13 weeks): 0.00
- Effect on SLE symptoms ([3]; mice on a 0.87% calcium diet): prevented or slowed SLE symptoms
- Disease severity scores versus controls ([3]; treated mice, 0.87% Ca diet): much less for the treated mice than for controls
- Physical symptoms of lupus ([3]; treated mice, 0.87% Ca diet, at 14 weeks of age (two control mice symptomatic)): None of the 1,25(OH)2D3-treated mice showed symptoms
- % of Mice with Proteinuria at 100 mg/dL and Greater ([4]; 50 ng/mouse/day in diet, treatment removed at 17 weeks, age 18 weeks): 0%
- % of Mice with Proteinuria at 100 mg/dL and Greater ([4]; 50 ng/mouse/day in diet, treatment removed at 17 weeks, age 19-25 weeks): 0%
- % of Mice with Proteinuria at 100 mg/dL and Greater ([4]; 50 ng/mouse/day in diet, age 0-15 weeks): 0%
- % of Mice with Proteinuria at 100 mg/dL and Greater ([4]; 50 ng/mouse/day in diet, age 16-17 weeks): 0%
- % of Mice with Proteinuria at 100 mg/dL and Greater ([4]; 200 ng then 100 ng/mouse/day in diet, treatment removed at 17 weeks, age 18 weeks): 0%
- % of Mice with Proteinuria at 100 mg/dL and Greater ([4]; 200 ng then 100 ng/mouse/day in diet, treatment removed at 17 weeks, age 19-25 weeks): 0%
- % of Mice with Proteinuria at 100 mg/dL and Greater ([4]; 200 ng then 100 ng/mouse/day in diet, age 16-17 weeks): 0%
- % of Mice with Proteinuria at 100 mg/dL and Greater ([4]; 200 ng then (from 10 weeks) 100 ng/mouse/day in diet, age 0-15 weeks): 0%
- Development of proteinuria of 100 mg/dL or greater ([4]; all treated mice, 0.87% Ca diet, whole experiment): none of the 1,25(OH)2D3 treated mice developed proteinuria of 100 mg/dL or greater
- Effect on symptoms of experimental murine lupus [5]: attenuation by 1,25-dihydroxyvitamin D3 of some symptoms
- Serum calcium ([6]; 50 ng treated group): 12 mg %Ca
- Serum calcium ([6]; 100 ng treated group): 12 mg %Ca
- Symptoms of hypercalcemia ([6]; 200 ng/mouse/day, 0.87% Ca diet, at 10 weeks of age): began to show symptoms of hypercalcemia
- Death of treated animals ([6]; 0.87% Ca diet, at 17 weeks of age): began to die of what we believe to be hypercalcemia
- % Proteinurea scores above 100 mg/dl on 0.02% Ca ([7]; age 10 weeks): 0%
- % Proteinurea scores above 100 mg/dl on 0.02% Ca ([7]; age 11 weeks): 0%
- % Proteinurea scores above 100 mg/dl on 0.02% Ca ([7]; age 12 weeks): 7.14%
- % Proteinurea scores above 100 mg/dl on 0.02% Ca ([7]; age 13 weeks): 14.28%
- % Proteinurea scores above 100 mg/dl on 0.02% Ca ([7]; age 14 weeks): 14.28%
- % Proteinurea scores above 100 mg/dl on 0.02% Ca ([7]; age 15 weeks): 35.7%
- % Proteinurea scores above 100 mg/dl on 0.02% Ca ([7]; age 16 weeks): 28.57%
- % Proteinurea scores above 100 mg/dl on 0.02% Ca ([7]; age 17 weeks): 28.57%
- % Proteinurea scores above 100 mg/dl on 0.02% Ca ([7]; age 18 weeks): 42.85%
- % Proteinurea scores above 100 mg/dl on 0.02% Ca ([7]; age 19 weeks): 28.57%
- % Proteinurea scores above 100 mg/dl on 0.02% Ca ([7]; age 20 weeks): 28.57%
